Results from patent US20190185865A1, “USE OF PROKARYOTIC TRANSCRIPTIONAL ACTIVATORS AS METABOLITE BIOSENSORS IN EUKARYOTIC CELLS” (Danmarks Tekniske Universitet, priority 2016, published 2019).
“And” between values parts separate entries of the source, which are not always exact repeats. Equal values may be shown once.

Legend:
BenM^H110R, F211V, Y286N [1] = biological target: T1, BenM^H110R, F211V, Y286N (Acinetobacter baylyi, UniProt O68014, F211V/H110R/Y286N); test: CCM-induced GFP expression in yeast expressing engineered BenM variants (epPCR library, FACS, flow cytometry); assay type: cell-based, Saccharomyces cerevisiae
T1 construct: expressed in transfected cells; host or cells: Saccharomyces cerevisiae; centromeric plasmid (gap repair) or chromosomal integration, REV1p
From the text: For optimization of the CCM inducibility of BenM, purified products from three consecutive rounds of error-prone PCR (epPCR) of the effector-binding domain (EBD, residues 90-304) of BenM, were co-transformed into yeast together with linearized centromeric plasmid according to Eckert-Boulet et al. (Eckert-Boulet, N., Pedersen, M. L., Krogh, B. O. & Lisby, M. Optimization of ordered plasmid assembly by gap repair in Saccharomyces cerevisiae. Yeast 29, 323-34 (2012)), to allow for in vivo gap repair and library reconstitution of wild-type BenM DNA binding domain (DBD) fused to EBD variants expressed from REV1p. For epPCR we used the GeneMorph II kit according to manufacturer's description (Agilent Technologies). Transformed yeast contained a chromosomal integration of the 209 bp_CYC1p_BenO_T1 promoter controlling the expressing of GFP at EasyClone site 4 on chromosome XII (Mikkelsen, M. D. et al. Microbial production of indolylglucosinolate through engineering of a multi-gene pathway in a versatile yeast expression platform. Metab. Eng. 14, 104-11 (2012)), to allow for FACS-based screening of improved CCM-inducible BenM variants.
A two-step method was used to sort for BenM variants that specifically induce in the presence of CCM. Cells (10× library size, approx. 400,000 cells) were inoculated in mineral medium without inducer and incubated for 24 h at 30° C., diluted into PBS, and then GFP intensity of individual cells was measured using a BD Biosciences Aria (Becton Dickinson) with a blue laser (488 nm) by applying tight gates on the FSC and SSC channels. Only cells displaying auto-fluorescence intensities were sorted in order to limit auto-activating BenM variants. Sorted cells were recovered in mineral medium, followed by subculturing (1:100) into mineral medium containing 1.4 mM (200 mg/L) cis,cis-muconic acid. The cells were grown for 24 h at 30° C., washed and subjected to a second round of FACS. […] Individual clones were subsequently validated using flow cytometry.
Events were analyzed using FlowJo software (TreeStar Inc.).

BenM^H110R, F211V, Y286N [2] = biological target: T1, BenM^H110R, F211V, Y286N; test: CCM biosensor output versus CCM titers in CCM-producing yeast strains (HPLC, flow cytometry); assay type: cell-based
Method: The CCM production strains were cultivated in 24-deep well plate with air-penetrable lids (EnzyScreen) to test for the production of CCM. Colonies from the individual strain were inoculated in 1 mL synthetic drop-out medium (Sigma-Aldrich), selecting for URA, HIS and LEU markers, and grown at 30° C. with 250 rpm agitation at 5 cm orbit cast for 24 h. 300 μL of the overnight cultures were used to inoculate 3 mL mineral medium (pH 4.5) in 24-deep well plate and incubated for 24-72 h at the same conditions as above. Experiments were performed in triplicates. The culture broth was centrifuged 3,500×rpm and the supernatant analyzed for CCM concentration using HPLC. For this purpose, samples were analyzed for 45 min using Aminex HPX-87H ion exclusion column with a 1 mM H2SO4 flow of 0.6 mL/min. The temperature of the column was 60° C. Refractive index and UV detectors (Dionex) were used for detection of CCM (250 nm). CCM concentrations were quantified by comparison with the spectrum of the standards. […] Naringenin was quantified using a quadratic calibration curve with authentic standards ranging from 0.039 mg/I to 20 mg/I using QuanLynx software (Waters).
Events were analyzed using FlowJo software (TreeStar Inc.). […]

T1 sequence (O68014 whole entry H110R/F211V/Y286N): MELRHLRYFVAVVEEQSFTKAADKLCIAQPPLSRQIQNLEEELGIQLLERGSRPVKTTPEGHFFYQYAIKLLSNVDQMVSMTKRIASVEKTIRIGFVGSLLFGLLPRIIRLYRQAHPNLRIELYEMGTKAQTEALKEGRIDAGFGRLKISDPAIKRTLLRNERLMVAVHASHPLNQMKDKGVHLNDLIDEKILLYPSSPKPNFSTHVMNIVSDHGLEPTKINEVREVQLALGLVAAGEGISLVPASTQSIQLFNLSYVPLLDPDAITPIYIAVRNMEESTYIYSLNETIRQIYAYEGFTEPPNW

O=C(O)/C=C\C=C/C(=O)O [CCM, cis, cis-muconic acid]
specificity of GFP induction among diacids tested (BenM^H110R, F211V, Y286N [1]; BenM^H110R, diacids 1.4 mM, pH 4.5, 24 h): induce GFP expression specifically in response to CCM | maximum induction of GFP output (BenM^H110R, F211V, Y286N [1]; chromosomally integrated BenM^H110R, 1.4 mM (200 mg/L) CCM, 24 h): 10 fold | GFP output upon CCM induction (BenM^H110R, F211V, Y286N [1]; plasmid-based expression of BenM^H110R): 6 fold | titers at which GFP outputs were saturated (BenM^H110R, F211V, Y286N [2]; 72 h of cultivation): > 1.41 mM and > 200 mg/L | correlation (r) between GFP output and CCM production titers (BenM^H110R, F211V, Y286N [2]; six CCM production strains and null strain, 24 h): 0.98
